Where only a bound is given, the exact number is not on record here.

What all share (assay type): ADME, cell-free
A short description of data set [1]: Metabolic stability in Sprague-Dawley rat serum assessed as compound remaining at 2 MBq at 1 hr by RP-HPLC analysis. The following applies: read-out: Stability.
The test system of another data set is Serum. Put plainly: (§1) Metabolic stability in Sprague-Dawley rat serum assessed as compound remaining at 2 MBq at 2 hrs by RP-HPLC analysis. As to conditions: 2 h.
Data set [2] in a line: as §1. The following applies: Sprague-Dawley, read-out: Stability.

For `O=C(NCCCCCC(=O)N1Cc2ccccc2C#Cc2ccccc21)c1ccc([18F])cc1`, in data set [1], the remaining at 1 h, 2 MBq was > 98%. The Stability result in the data set with Serum is “Stable”.
With `O=C(O)COCC(=O)NCCOCCOCCOCCOCCOCCOCCOCCOCCn1nnc2c1-c1ccccc1CN(C(=O)CCCCCNC(=O)c1ccc([18F])cc1)c1ccccc1-2`, in data set [1], the remaining at 1 h, 2 MBq is > 98%. The remaining at 2 h, 2 MBq in data set [2] was found to be 96.8%.

The values are drawn from ChEMBL document CHEMBL2029257, “Copper-Free Click for PET: Rapid 1,3-Dipolar Cycloadditions with a Fluorine-18 Cyclooctyne” (ACS Med Chem Lett, 2011).
